According to publication PMC11078746 (Nature, 2024):
Several values for one entry are separate records, joined by “and”; a condition that tells them apart may be missing. Identical values can stand only once.

Tests used:
2313287 = assay: CFA 10-14 day clonogenic assay; assay type: cell-based; conditions: Homo sapiens
SW48 xenografts = assay: SW48 cell-derived xenograft efficacy, HRO761 orally once daily; assay type: in vivo, mouse
Description: All animal studies were conducted in accordance with ethics and procedures covered by permit BS-2275 and BS-1975 issued by the Kantonales Veterinäramt Basel-Stadt and in strict adherence to guidelines of the Eidgenössisches Tierschutzgesetz and the Eidgenössische Tierschutzverordnung, Switzerland. All animal studies were approved by the internal ethics committee. All animals had access to food and water ad libitum and were identified with transponders. They were housed in a specific-pathogen-free facility in IVC racks under a 12 h–12 h light–dark cycle. To establish cell-line-derived xenograft models, 6–7-week-old female athymic nude (Crl:NU(NCr)-Foxn1^nu) or SCID-BEIGE (CB17.Cg-PrkdcscidLystbg-J/Crl) mice from Charles River were engrafted subcutaneously with 5 million tumour cells in HBSS (H6648, Sigma-Aldrich). For SNU-407, Lovo, IM95, RL95.2, Ishikawa and IGROV-1, the cells were concentrated in 50% Matrigel (354234, Corning). Patient-derived xenografts were induced and expanded by transplantation as previously described. […] For the efficacy experiment, mice were randomized into groups (n = 5–6) for a mean tumour size of 100–150 mm^3. […] Blood samples were collected on day 7 and 91. […] Tumour responses are reported with the measures of tumour volumes from the treatment start. […] Animals were randomized (n = 3) and tumour samples were collected at 0, 1, 4, 8 and 24 h on the first day and then collected 4 h after the last treatment on day 3, 8, 10, 14 (including a 24 h timepoint), 17 and 21. Tumours were excised, weighed, either frozen in liquid nitrogen and cryogenic dry pulverized with the CryoPrep system (model CP-02, Covaris) or processed to FFPE after fixation. […] On day 12, blood samples were collected for PK analysis. On the last day (3 h after the last treatment), tumours were excised, weighed, frozen in liquid nitrogen and cryogenic dry pulverized for PD analysis.

Question: `CCc1c(N2CCN(C(=O)c3ncnc(C)c3O)CC2)c(=O)n2nc(C3=CCOCC3)nc2n1CC(=O)Nc1ccc(C(F)(F)F)cc1Cl` [HRO761] was tested. Which GI50 2313287 did it give?
Answer: 2.08 µM

Question: What about the “max Reg (%) or max T/C (%)” value (SW48 xenografts; 10 mg/kg) of the same molecule?
Answer: 94.00%

Question: What about the tumour response (SW48 xenografts; 20 mg per kg, once daily oral) of the same molecule?
Answer: tumour stasis

Question: What about the “max Reg (%) or max T/C (%)” value (SW48 xenografts; 20 mg/kg) of the same molecule?
Answer: 6.00%

Question: And the “max Reg (%) or max T/C (%)” value (SW48 xenografts; 30 mg/kg)?
Answer: -69.00%

Question: And the “max Reg (%) or max T/C (%)” value (SW48 xenografts; 40 mg/kg)?
Answer: -75.00%

Question: What about the “max Reg (%) or max T/C (%)” value (SW48 xenografts; 60 mg/kg) of the same molecule?
Answer: -85.00%

Question: What about the “max Reg (%) or max T/C (%)” value (SW48 xenografts; 120 mg/kg) of the same molecule?
Answer: -89.00%

Question: And the “Mean TVol” value (SW48 xenografts; HRO761 20mg/kg, day 0 post 1st dose)?
Answer: 148.57 mm3

Question: And the “Mean TVol” value (SW48 xenografts; HRO761 20mg/kg, day 3 post 1st dose)?
Answer: 172.19 mm3

Question: What about the “Mean TVol” value (SW48 xenografts; HRO761 20mg/kg, day 7 post 1st dose) of the same molecule?
Answer: 214.06 mm3

Question: And the “Mean TVol” value (SW48 xenografts; HRO761 20mg/kg, day 10 post 1st dose)?
Answer: 199.01 mm3

Question: What about the “Mean TVol” value (SW48 xenografts; HRO761 20mg/kg, day 14 post 1st dose) of the same molecule?
Answer: 193.54 mm3

Question: And the “TVol, individual mouse” value (SW48 xenografts; HRO761 20mg/kg, day 14 post 1st dose, 20 mg/kg)?
Answer: 183.48 mm3 and 119.53 mm3 and 120.69 mm3 and 296.11 mm3 and 247.89 mm3

Question: What about the “Mean TVol” value (SW48 xenografts; HRO761 20mg/kg, day 17 post 1st dose) of the same molecule?
Answer: 171.07 mm3

Question: What about the “TVol, individual mouse” value (SW48 xenografts; HRO761 20mg/kg, day 17 post 1st dose, 20 mg/kg) of the same molecule?
Answer: 183.94 mm3 and 118.26 mm3 and 128.1 mm3 and 182.42 mm3 and 242.62 mm3

Question: And the “Mean TVol” value (SW48 xenografts; HRO761 20mg/kg, day 21 post 1st dose)?
Answer: 210.51 mm3

Question: What about the “TVol, individual mouse” value (SW48 xenografts; HRO761 20mg/kg, day 21 post 1st dose, 20 mg/kg) of the same molecule?
Answer: 237.44 mm3 and 188.88 mm3 and 167.52 mm3 and 218.78 mm3 and 239.95 mm3

Question: What about the “Mean TVol” value (SW48 xenografts; HRO761 20mg/kg, day 24 post 1st dose) of the same molecule?
Answer: 217.13 mm3

Question: What about the “TVol, individual mouse” value (SW48 xenografts; HRO761 20mg/kg, day 24 post 1st dose, 20 mg/kg) of the same molecule?
Answer: 213.9 mm3 and 149.74 mm3 and 186.94 mm3 and 199.91 mm3 and 335.14 mm3

Question: What about the “Mean TVol” value (SW48 xenografts; HRO761 20mg/kg, day 28 post 1st dose) of the same molecule?
Answer: 270.81 mm3

Question: And the “TVol, individual mouse” value (SW48 xenografts; HRO761 20mg/kg, day 28 post 1st dose, 20 mg/kg)?
Answer: 244.97 mm3 and 189.99 mm3 and 254.46 mm3 and 269.33 mm3 and 395.3 mm3

Question: And the “Mean TVol” value (SW48 xenografts; HRO761 20mg/kg, day 31 post 1st dose)?
Answer: 317.23 mm3

Question: And the “Mean TVol” value (SW48 xenografts; HRO761 20mg/kg, day 35 post 1st dose)?
Answer: 380.57 mm3

Question: What about the “Mean TVol” value (SW48 xenografts; HRO761 20mg/kg, day 38 post 1st dose) of the same molecule?
Answer: 438.75 mm3

Question: What about the “Mean TVol” value (SW48 xenografts; HRO761 20mg/kg, day 42 post 1st dose) of the same molecule?
Answer: 626.99 mm3

Question: And the “Mean TVol” value (SW48 xenografts; HRO761 20mg/kg, day 45 post 1st dose)?
Answer: 658.99 mm3

Question: And the “Mean TVol” value (SW48 xenografts; HRO761 40mg/kg, day 0 post 1st dose)?
Answer: 148.59 mm3

Question: What about the “Mean TVol” value (SW48 xenografts; HRO761 40mg/kg, day 3 post 1st dose) of the same molecule?
Answer: 162.25 mm3

Question: What about the “Mean TVol” value (SW48 xenografts; HRO761 40mg/kg, day 7 post 1st dose) of the same molecule?
Answer: 181.10 mm3

Question: What about the “Mean TVol” value (SW48 xenografts; HRO761 40mg/kg, day 10 post 1st dose) of the same molecule?
Answer: 146.66 mm3

Question: And the “Mean TVol” value (SW48 xenografts; HRO761 40mg/kg, day 14 post 1st dose)?
Answer: 133.58 mm3

Question: What about the “TVol, individual mouse” value (SW48 xenografts; HRO761 40mg/kg, day 14 post 1st dose, 40 mg/kg) of the same molecule?
Answer: 137.47 mm3 and 92.79 mm3 and 146.32 mm3 and 135.46 mm3 and 155.86 mm3

Question: And the “Mean TVol” value (SW48 xenografts; HRO761 40mg/kg, day 17 post 1st dose)?
Answer: 95.84 mm3

Question: What about the “TVol, individual mouse” value (SW48 xenografts; HRO761 40mg/kg, day 17 post 1st dose, 40 mg/kg) of the same molecule?
Answer: 84.05 mm3 and 68.24 mm3 and 117.68 mm3 and 91.67 mm3 and 117.57 mm3

Question: What about the “Mean TVol” value (SW48 xenografts; HRO761 40mg/kg, day 21 post 1st dose) of the same molecule?
Answer: 84.88 mm3

Question: And the “TVol, individual mouse” value (SW48 xenografts; HRO761 40mg/kg, day 21 post 1st dose, 40 mg/kg)?
Answer: 65.27 mm3 and 62.26 mm3 and 114.98 mm3 and 87.79 mm3 and 94.1 mm3

Question: And the “Mean TVol” value (SW48 xenografts; HRO761 40mg/kg, day 24 post 1st dose)?
Answer: 52.61 mm3

Question: What about the “TVol, individual mouse” value (SW48 xenografts; HRO761 40mg/kg, day 24 post 1st dose, 40 mg/kg) of the same molecule?
Answer: 40.05 mm3 and 34.46 mm3 and 63.81 mm3 and 55.22 mm3 and 69.51 mm3

Question: And the “Mean TVol” value (SW48 xenografts; HRO761 40mg/kg, day 28 post 1st dose)?
Answer: 44.44 mm3

Question: What about the “TVol, individual mouse” value (SW48 xenografts; HRO761 40mg/kg, day 28 post 1st dose, 40 mg/kg) of the same molecule?
Answer: 41.72 mm3 and 27.23 mm3 and 46.41 mm3 and 45.86 mm3 and 60.97 mm3

Question: What about the “Mean TVol” value (SW48 xenografts; HRO761 40mg/kg, day 31 post 1st dose) of the same molecule?
Answer: 37.24 mm3

Question: And the “Mean TVol” value (SW48 xenografts; HRO761 40mg/kg, day 35 post 1st dose)?
Answer: 32.88 mm3

Question: And the “Mean TVol” value (SW48 xenografts; HRO761 40mg/kg, day 38 post 1st dose)?
Answer: 33.30 mm3

Question: And the “Mean TVol” value (SW48 xenografts; HRO761 40mg/kg, day 42 post 1st dose)?
Answer: 36.90 mm3

Question: What about the “Mean TVol” value (SW48 xenografts; HRO761 40mg/kg, day 45 post 1st dose) of the same molecule?
Answer: 34.79 mm3

Question: And the “Mean TVol” value (SW48 xenografts; HRO761 40mg/kg, day 49 post 1st dose)?
Answer: 37.27 mm3

Question: What about the “Mean TVol” value (SW48 xenografts; HRO761 40mg/kg, day 52 post 1st dose) of the same molecule?
Answer: 35.78 mm3

Question: And the “Mean TVol” value (SW48 xenografts; HRO761 40mg/kg, day 56 post 1st dose)?
Answer: 46.42 mm3

Question: What about the “Mean TVol” value (SW48 xenografts; HRO761 40mg/kg, day 59 post 1st dose) of the same molecule?
Answer: 55.91 mm3

Question: What about the “Mean TVol” value (SW48 xenografts; HRO761 40mg/kg, day 63 post 1st dose) of the same molecule?
Answer: 77.49 mm3

Question: And the “Mean TVol” value (SW48 xenografts; HRO761 40mg/kg, day 66 post 1st dose)?
Answer: 84.81 mm3

Question: And the “Mean TVol” value (SW48 xenografts; HRO761 40mg/kg, day 70 post 1st dose)?
Answer: 105.06 mm3

Question: What about the “Mean TVol” value (SW48 xenografts; HRO761 40mg/kg, day 73 post 1st dose) of the same molecule?
Answer: 118.43 mm3

Question: And the “Mean TVol” value (SW48 xenografts; HRO761 40mg/kg, day 76 post 1st dose)?
Answer: 139.13 mm3

Question: What about the “Mean TVol” value (SW48 xenografts; HRO761 40mg/kg, day 79 post 1st dose) of the same molecule?
Answer: 184.71 mm3

Question: What about the “Mean TVol” value (SW48 xenografts; HRO761 40mg/kg, day 83 post 1st dose) of the same molecule?
Answer: 215.37 mm3

Question: What about the “Mean TVol” value (SW48 xenografts; HRO761 40mg/kg, day 86 post 1st dose) of the same molecule?
Answer: 261.40 mm3

Question: And the “Mean TVol” value (SW48 xenografts; HRO761 40mg/kg, day 90 post 1st dose)?
Answer: 329.03 mm3

Question: And the “Mean TVol” value (SW48 xenografts; HRO761 40mg/kg, day 92 post 1st dose)?
Answer: 334.15 mm3

Question: What about the “Mean TVol” value (SW48 xenografts; HRO761 60mg/kg, day 0 post 1st dose) of the same molecule?
Answer: 148.59 mm3

Question: What about the “Mean TVol” value (SW48 xenografts; HRO761 60mg/kg, day 3 post 1st dose) of the same molecule?
Answer: 184.38 mm3

Question: And the “Mean TVol” value (SW48 xenografts; HRO761 60mg/kg, day 7 post 1st dose)?
Answer: 168.35 mm3

Question: What about the “Mean TVol” value (SW48 xenografts; HRO761 60mg/kg, day 10 post 1st dose) of the same molecule?
Answer: 139.22 mm3

Question: What about the “Mean TVol” value (SW48 xenografts; HRO761 60mg/kg, day 14 post 1st dose) of the same molecule?
Answer: 143.74 mm3
